Data as given in ChEMBL document CHEMBL3425399, “Progress in discovery of small-molecule modulators of protein-protein interactions via fragment screening” (Bioorg Med Chem Lett, 2015).
pEC50, pKd: −log10 of the molar value.

Key:
GTPase KRas = GTPase KRas (Homo sapiens, UniProt P01116); assay: Binding affinity to KRas (unknown origin)
[1] = target: T1, DNA repair protein RAD51 homolog 1 (Homo sapiens, UniProt Q06609); assay: Binding affinity to RAD51 (unknown origin) by isothermal calorimetry
T1 sequence (Q06609 whole entry): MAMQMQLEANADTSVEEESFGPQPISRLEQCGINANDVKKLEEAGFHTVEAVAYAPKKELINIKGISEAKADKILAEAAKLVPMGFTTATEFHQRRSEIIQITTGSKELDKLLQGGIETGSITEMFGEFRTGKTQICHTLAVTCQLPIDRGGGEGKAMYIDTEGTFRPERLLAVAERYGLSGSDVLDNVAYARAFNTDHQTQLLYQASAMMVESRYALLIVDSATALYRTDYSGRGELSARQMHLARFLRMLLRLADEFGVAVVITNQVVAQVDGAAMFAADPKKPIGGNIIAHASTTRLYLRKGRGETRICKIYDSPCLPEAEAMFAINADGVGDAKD

Hepacivirus hominis [2] = assay: Inhibition of HCV NS3 protease at 0.01 uM by FRET assay
Hepatitis C virus = assay: Antiviral activity against HCV by cell based viral replicon assay; type: functional, organism-based, Hepacivirus hominis
Hepacivirus hominis [3] = assay: Inhibition of HCV NS3 protease at 500 uM by FRET assay

GTPase KRas, sequence (P01116 whole entry): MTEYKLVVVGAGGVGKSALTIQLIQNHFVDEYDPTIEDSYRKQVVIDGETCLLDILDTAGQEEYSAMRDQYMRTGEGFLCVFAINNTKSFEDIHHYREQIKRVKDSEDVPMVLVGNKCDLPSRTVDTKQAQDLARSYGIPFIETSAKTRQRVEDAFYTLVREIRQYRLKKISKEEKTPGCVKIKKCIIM

pKd [1] | SMILES | also measured
2.68 | Oc1ccc2[nH]ccc2c1 | –
5.89 | O=S(=O)(NCCc1c[nH]c2ccccc12)c1cc(Br)c(Cl)s1 | –
4.46 | N[C@@H](Cc1c[nH]c2ccccc12)C(=O)OCCc1ccccc1 | –

More lines, now with the values behind:

SMILES | pKd [1] | also measured
CC[C@H](C)[C@H](N)C(=O)Nc1ccc2nc(Cc3c[nH]c4ccccc34)[nH]c2c1 | – | pKd (GTPase KRas): 3.72
O=C(N[C@@H](Cc1c[nH]c2ccccc12)C(=O)OCCc1ccccc1)c1ccccc1 | 5.52 | –
CC[C@@H](N[C@@H](C)CC(=O)NCCN)c1ccc(Cl)c(Oc2ccccc2)c1F | – | inhibition (Hepacivirus hominis [2]): 68%; pEC50 (Hepatitis C virus): 8.10
Cc1[nH]c2ccccc2c1Cc1nc2ccccc2[nH]1 | – | pKd (GTPase KRas): 2.70
NCc1ccc(Oc2ccccc2)cc1 | – | inhibition (Hepacivirus hominis [3]): 55%
COC(=O)[C@@H](N)Cc1c[nH]c2ccccc12 [TRYPTOPHAN METHYL ESTER] | 3.24 | –
